Test results as given in article PMC9147192, “Small Molecule Arranged Thermal Proximity Coaggregation (smarTPCA)—A Novel Approach to Characterize Protein–Protein Interactions in Living Cells by Similar Isothermal Dose–Responses” (International Journal of Molecular Sciences, 2022).
Where “and” joins values, the source holds several entries; their conditions need not be identical. Equal entries are not always repeated. Where two headings read alike, the source gives them in different places.

Columns and labels:
MAPKAPK3 = MAPKAPK3 (Homo sapiens, UniProt Q16644); experiment: CETSA in HL-60 cell extract, immunoblot; type: binding
Chain of MAPKAPK3 (Q16644 whole entry): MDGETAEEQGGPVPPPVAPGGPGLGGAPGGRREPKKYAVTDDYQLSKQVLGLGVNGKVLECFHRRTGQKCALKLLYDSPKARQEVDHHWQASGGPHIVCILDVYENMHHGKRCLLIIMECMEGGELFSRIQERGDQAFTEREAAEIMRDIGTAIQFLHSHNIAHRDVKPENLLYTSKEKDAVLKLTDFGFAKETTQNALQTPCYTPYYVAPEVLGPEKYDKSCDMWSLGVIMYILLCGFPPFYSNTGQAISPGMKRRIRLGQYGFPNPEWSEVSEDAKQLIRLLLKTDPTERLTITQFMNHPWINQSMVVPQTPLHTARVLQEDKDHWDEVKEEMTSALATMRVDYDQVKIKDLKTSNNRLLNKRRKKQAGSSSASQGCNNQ
Chain of MAPKAPK3 (Q16539 whole entry partner): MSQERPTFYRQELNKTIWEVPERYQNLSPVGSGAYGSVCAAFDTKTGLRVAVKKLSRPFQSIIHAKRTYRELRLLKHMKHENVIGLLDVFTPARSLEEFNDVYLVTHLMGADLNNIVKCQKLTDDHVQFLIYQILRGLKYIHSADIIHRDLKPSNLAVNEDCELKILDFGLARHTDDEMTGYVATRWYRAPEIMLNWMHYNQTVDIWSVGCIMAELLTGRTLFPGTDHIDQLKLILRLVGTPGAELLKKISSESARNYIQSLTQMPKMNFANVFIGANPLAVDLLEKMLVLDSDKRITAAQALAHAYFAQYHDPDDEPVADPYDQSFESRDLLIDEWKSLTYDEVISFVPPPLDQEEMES
Protocol: (§1) For the differentiation of primary and secondary binding effects, CETSA experiments using cell extracts instead of living cells (cell extract test) are proposed in the literature. Therefore, we performed CETSA assays in HL-60 cell extracts under the same conditions as for living cells (Figure 1, Table 1, Supplementary Table S6).
(§2) HL-60 cells were expanded as described above for CETSA and TPP-TR to about 1.25 million cells per ml. 50 mL of the cell suspension, respectively, was transferred into 50 mL conical tubes. After centrifugation (300 rcf, 3 min, r.t.) and removing all of the supernating culture medium, the cells were washed twice with 25 mL PBS (r.t.) by gently resuspending the cells, followed by centrifugation (300 rcf, 3 min, r.t.) and the removal of the supernatant. The cells were transferred into pre-weighed 2 mL LoBind Eppendorf tubes using 1 mL PBS (r.t.), respectively, for resuspending. After centrifugation (300 rcf, 3 min, r.t.) and removing as much as possible of the supernatants, the cell wet weights were determined. The cells were stored at −80 °C after shock-freezing in liquid nitrogen.
(§3) Cell extracts were obtained by four freeze/thaw cycles as described above for CETSA and TPP-TR using 10 µL ice cold PBS supplemented with protease inhibitors per milligram of cell pellet wet weight for the initial resuspension of the pellet, followed by centrifugation (20,000 rcf, 30 min, 4 °C), and the recovery of the supernatant. After determining the protein content, the cell extracts were diluted to 1.8 mg/mL total protein concentration using ice-cold PBS supplemented with protease inhibitors and aliquots of 99 µL in PCR tube strips, and 1.1 mL in LoBind 1.5 mL Eppendorf tubes were shock-frozen in liquid nitrogen and stored at −80 °C or directly processed.
(§4) A fourth aliquot of 1.8 mg/mL HL-60 cell extract was supplemented with 2.2 µL of DMSO. […] After a brief centrifugation using a benchtop centrifuge, the temperature treatment at the ten different temperatures was performed as described in Section 4.1.1.
(§5) Additionally, the preparation of cell extracts containing the fraction of soluble, non-denatured proteins was performed as described in Section 4.1.1. for living cells, but omitting the freeze/thaw steps for cell lysis.
(§6) For each sample set comprising either ten temperature range samples or ten compound concentration range samples, the same volume of the cell extracts containing the fraction of soluble, non-denatured proteins was used for further analysis. This volume was determined using the two lowest temperature samples (36.5 and 41.2 °C) per temperature range sample set so that they contained an average of 5 µg total protein (e.g., 2.78 µL for all temperature range samples of a sample set whose two lowest temperature samples contain an average of 1.8 mg/mL protein). For the compound concentration range experiments, all samples of a set were used for averaging. The calculated volume was respectively transferred into PCR tubes of a tube strip, supplemented with SDS sample buffer (final concentrations: 25 mM dithiothreitol (DTT), 7.5% glycerol, 3% SDS, 37.5 mM Tris/HCl pH 7.0, 0.005% bromophenol blue), incubated for 10 min at r.t. and applied to SDS-PAGE under external cooling in an ice bath (MW marker: PageRuler pre-stained protein ladder (Thermo scientific, Waltham, MA, USA); NuPAGE 4–12% Bis-Tris Gels, 1.0 mm, Midi Protein Gel, 26-well (Thermo fisher scientific); ice cold MOPS SDS running buffer (50 mM MOPS, 50 mM Tris base, 0.1% SDS, 0.003% EDTA (free acid)); 50 V for 15 min, then 200 V for about 1.5 h, i.e., the rest of the run).

MAPKAPK2p = target: T1, MAPKAPK2p (Homo sapiens, UniProt P49137); experiment: CETSA in HL-60 cell extract, immunoblot; type: binding
T1 construct: phosphorylation-dependent electrophoretic mobility shift (PDEMS) of MAPKAPK2, which appeared as a double band; endogenous in cells; host or cells: HL-60 (ATCC CCL-240), living cells or cell extract
T1 sequence (P49137 whole entry): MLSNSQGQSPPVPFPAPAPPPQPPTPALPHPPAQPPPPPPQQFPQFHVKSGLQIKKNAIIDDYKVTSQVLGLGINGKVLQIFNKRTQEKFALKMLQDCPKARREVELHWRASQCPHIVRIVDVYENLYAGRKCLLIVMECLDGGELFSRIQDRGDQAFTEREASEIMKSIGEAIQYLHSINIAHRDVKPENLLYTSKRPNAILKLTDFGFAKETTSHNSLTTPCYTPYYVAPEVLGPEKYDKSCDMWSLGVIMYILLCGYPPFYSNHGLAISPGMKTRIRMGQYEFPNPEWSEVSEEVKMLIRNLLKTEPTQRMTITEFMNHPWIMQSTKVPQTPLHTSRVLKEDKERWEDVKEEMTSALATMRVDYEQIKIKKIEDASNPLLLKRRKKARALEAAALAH
T1 sequence (Q16539 2-360 partner): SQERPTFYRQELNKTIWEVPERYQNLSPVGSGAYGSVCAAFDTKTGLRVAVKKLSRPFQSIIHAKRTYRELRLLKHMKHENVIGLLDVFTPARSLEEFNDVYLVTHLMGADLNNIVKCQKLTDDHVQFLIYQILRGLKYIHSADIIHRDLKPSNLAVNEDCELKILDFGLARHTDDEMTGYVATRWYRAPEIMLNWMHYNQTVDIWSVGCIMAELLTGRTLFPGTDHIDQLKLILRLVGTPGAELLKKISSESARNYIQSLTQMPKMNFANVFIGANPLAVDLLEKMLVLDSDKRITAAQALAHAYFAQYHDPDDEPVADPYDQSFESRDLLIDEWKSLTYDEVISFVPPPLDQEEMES
Protocol: as §1, §2, §3, §4, §5, §6

MAPK14 = MAPK14 (Homo sapiens, UniProt Q16539); experiment: CETSA in HL-60 cell extract, immunoblot; type: binding
Chain of MAPK14 (Q16539 whole entry): as the sequence (Q16539 whole entry partner) above
Protocol: as §1, §2, §3, §4, §5, §6

MAPKAPK2 [1] = tested on: MAPKAPK2; set-up: method as in PMID 22037378; details: cited from earlier work
MAPKAPK2 [2] = tested on: MAPKAPK2; set-up: method as in PMID 23398362; details: cited from earlier work
WDR46 = WDR46 (Homo sapiens, UniProt O15213); experiment: TPP-CCR in living HL-60 cells
Chain of WDR46 (O15213 whole entry): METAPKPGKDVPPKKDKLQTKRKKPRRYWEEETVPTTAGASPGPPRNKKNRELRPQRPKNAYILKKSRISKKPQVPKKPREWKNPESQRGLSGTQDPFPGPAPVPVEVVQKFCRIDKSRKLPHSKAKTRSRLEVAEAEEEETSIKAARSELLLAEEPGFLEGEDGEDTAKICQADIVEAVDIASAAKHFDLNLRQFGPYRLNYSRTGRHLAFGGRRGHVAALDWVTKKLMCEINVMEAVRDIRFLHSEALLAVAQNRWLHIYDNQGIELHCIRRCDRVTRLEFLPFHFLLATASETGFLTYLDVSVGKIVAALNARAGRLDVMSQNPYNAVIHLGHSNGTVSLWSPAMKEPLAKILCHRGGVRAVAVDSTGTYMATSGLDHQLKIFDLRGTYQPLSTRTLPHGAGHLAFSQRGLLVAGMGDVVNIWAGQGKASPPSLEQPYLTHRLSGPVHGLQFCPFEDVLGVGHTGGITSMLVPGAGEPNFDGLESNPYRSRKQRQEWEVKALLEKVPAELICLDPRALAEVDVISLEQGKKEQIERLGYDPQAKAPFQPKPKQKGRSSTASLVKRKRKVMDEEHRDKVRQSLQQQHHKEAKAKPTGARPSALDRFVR

NAPG = NAPG (Homo sapiens, UniProt Q99747); experiment: TPP-CCR in living HL-60 cells
Chain of NAPG (Q99747 whole entry): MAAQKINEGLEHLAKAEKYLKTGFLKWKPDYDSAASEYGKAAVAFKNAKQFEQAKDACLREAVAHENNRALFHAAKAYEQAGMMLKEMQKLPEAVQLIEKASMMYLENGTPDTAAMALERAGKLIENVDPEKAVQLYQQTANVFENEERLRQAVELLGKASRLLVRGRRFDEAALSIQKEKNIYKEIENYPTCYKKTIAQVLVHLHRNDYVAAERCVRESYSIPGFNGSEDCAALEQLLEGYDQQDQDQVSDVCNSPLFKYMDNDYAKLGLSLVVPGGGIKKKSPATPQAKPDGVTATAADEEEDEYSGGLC

[3] = HL-60 cell extract, 20 µM inhibitor, immunoblot
[4] = HL-60 cell extract, 20 µM inhibitor, immunoblot, 20 µM
[5] = MAPKAPK3, cell extract, immunoblot
[6] = MAPKAPK2p, cell extract, immunoblot
[7] = living HL-60 cells, […] °C, TMT-MS

Cn1c(NC[C@@H](N)Cc2ccccc2)nc(-c2ccncc2)c(-c2ccc3ccccc3c2)c1=O [AMG-548]
ΔTm to DMSO in Cell Extract Compared to Living Cells (MAPKAPK3) (MAPKAPK3; 20 µM inhibitor): −3.99 °C
Tm difference vs DMSO, same protein (MAPKAPK3; CETSA in cell extract (lysate), MAPKAPK3, inhibitor minus DMSO): 2.63
Tm (fitted melting curve) (MAPKAPK3; CETSA in cell extract (lysate), MAPKAPK3, in °C): 49.31
Tm (MAPKAPK3) (MAPKAPK3; [3]): 49.31 °C
ΔTm to DMSO (MAPKAPK3) (MAPKAPK3; [4]): 2.6 °C and 2.63 °C
ΔTm to DMSO in cell extract compared to living cells (MAPKAPK3; MAPKAPK3, cell extract minus living cells): -3.99 °C
Tm (MAPKAPK3; [5]): 49.31 °C
ΔTm to DMSO (MAPKAPK3; [5]): 2.63 °C
Tm difference vs DMSO, same protein (MAPKAPK2p; CETSA in cell extract (lysate), MAPKAPK2p, inhibitor minus DMSO): 2.82
Tm (fitted melting curve) (MAPKAPK2p; CETSA in cell extract (lysate), MAPKAPK2p, in °C): 50.95
Tm (MAPKAPK2p) (MAPKAPK2p; [3]): 50.95 °C
ΔTm to DMSO (MAPKAPK2p) (MAPKAPK2p; [4]): 2.82 °C
ΔTm to DMSO (MAPKAPK2p) (MAPKAPK2p; HL-60 cell extract, 20 µM inhibitor, immunoblot, listed as AMG548, 20 µM): 2.8 °C
Tm (MAPKAPK2p; [6]): 50.95 °C
ΔTm to DMSO (MAPKAPK2p; [6]): 2.82 °C
ΔTm at 20 µM (MAPK14; 20 µM inhibitor, read-out: ΔTm to DMSO in Cell Extract Compared to Living Cells (MAPK14)): -1.16 °C
Tm difference vs DMSO, same protein (MAPK14; CETSA in cell extract (lysate), MAPK14, inhibitor minus DMSO): 13.60
Tm (fitted melting curve) (MAPK14; CETSA in cell extract (lysate), MAPK14, in °C): 59.15
Tm (MAPK14) (MAPK14; [3]): 59.15 °C
ΔTm at 20 µM (MAPK14; HL-60 cell extract, 20 µM inhibitor, immunoblot, read-out: ΔTm to DMSO (MAPK14)): 13.6 °C
Tm (MAPK14; MAPK14, cell extract, immunoblot): 59.15 °C

C[S+]([O-])c1ccc(-c2nc(-c3ccncc3)c(-c3ccc(F)cc3)[nH]2)cc1 (stereo not drawn) [SB203580]
activity towards MAPKAPK2 (MAPKAPK2 [1]): inactivity
activity against MAPKAPK2 (MAPKAPK2 [2]): inactivity
EC50 (WDR46): 32.4 nM
Hill slope (WDR46) (WDR46; [7]): 0.23
EC50 (NAPG): 1.95 nM
Hill slope (NAPG) (NAPG; [7]): 0.24
